Test results published in patent publication US20140357563A1, “Compositions and Methods for the Generation of Activated Protein C and Methods of Use Thereof” (The Children's Hospital of Philadelphia, priority 2011, published 2014).
Entries after “also recorded” stand apart in the source; their conditions may differ.

Assays:
[1] = system: thrombin (IIa)/thrombomodulin (TM) complex, TM+CS; assay: In vitro aPC generation assay in solution, IIa/TM complex with TM containing chondroitin sulfate side chains (TM+CS, TMCS); assay type: biochemical, rabbit or human; details: for increase of aPC generation by PF4 in absence of histones: TMCS 0.5 nM, FIG. 6A; for effect of heparinoid on aPC generation with high doses of PF4 and histones: conditions simulating late sepsis; for effect of heparinoid on aPC generation at low levels of histones: histones 0-10 μg/ml, heparinoid 2, 5 or 10 μg/ml; for effect of heparinoid on aPC generation at low levels of histones / effect of heparinoid on aPC generation at higher levels of histones: FIG. 7; for effect of heparinoid on aPC generation at higher levels of histones: histones >10 μg/ml
Description: (§1) Generation of aPC was assayed in 96-well plates as described previously (Slungaard et al. (1994) J. Biol. Chem., 269:25549-25556; Slungaard et al. (1993) J. Clin. Invest., 91:1721-1730). Briefly, thrombomodulin (TM) was mixed with various amounts of PF4 and/or heparin for 10 minutes in assay buffer (final concentration, 20 mM Tris, 100 mM NaCl, 1 mM CaCl2, 0.1% BSA, pH 7.5). Protein C (PC) was added for an additional 10 minutes followed by addition of thrombin (IIa) at a final concentration of either 0.2 or 2 nM and 15 minutes of incubation. All incubations were done at 37° C. Final concentrations of TM and PC were 0.5 nM and 500 nM, respectively.
Generation of aPC was assayed in 96-well plates generally as described above. Briefly, rabbit or human sTMCS or sTM−CS, was mixed with various amounts of histones, PF4 and/or heparinoid for 10 minutes in assay buffer (final concentration, 20 mM Tris, 100 mM NaCl, 1 mM CaCl2, 0.1% BSA, pH 7.5). Final concentrations of TMs were 0.5-40 nM. PC (final concentration, 500 nM) was added for an additional 10 minutes followed by addition of IIa at a final concentration of 0.2 or 2 nM and then incubated for 15 minutes. All incubations were done at 37° C. The reaction was quenched with 1 mM EDTA and 100 nM hirudin. Concentrations of aPC formed in the quenched samples were inferred from initial rate measurements after the addition of 0.5 mM S2366. Initial rates of chromogenic substrate cleavage were determined by measuring absorbance at 405 nm using a ThermoMax™ Microtiter Vmax® plate reader (Molecular Devices; Sunnyvale, Calif.).

[2] = system: thrombin (IIa)/thrombomodulin (TM) complex; assay: In vitro aPC assay in solution, on human TM expressing HEK293 and on primary endothelial cells; assay type: cell-based
Description: as §1
To measure aPC formation, HEK-K293 cells stably expressing human TM on their surface cells were allowed to adhere overnight onto 24-well plates (5×10^5 cells/well) in DMEM/F12 media containing 10% FBS (Feistritzer et al. (2006) J. Biol. Chem., 281:20077-20084). Cells were washed twice with DMEM/F12 media followed by Dulbecco PBS. Various concentrations of PF4 or protamine sulfate (PRT) were incubated with cells for 10 minutes at 37° C. followed by the addition of PC and IIa, as described above. After incubation for 45 minutes, aliquots of the reaction mixture were transferred to 96-well plates and quenched by the addition of 1 mM EDTA and 100 nM hirudin. Generation of aPC was measured after the addition of 0.5 mM […] and determination of the initial rate of chromogenic substrate cleavage from absorbance measurements at 405 nm on a Thermomax™ Microtiter Vmax® plate reader (Molecular Devices).

plasma aPC = assay: In vivo aPC generation measured in mouse plasma; details: for effect of heparinoid on aPC generation after histones: histones 50 mg/kg
Description: Generation of aPC in vivo was assayed in plasma of mice as described (Kowalska et al. (2007) Blood 110:1903-1905). Mice were injected into the jugular vein. After 10 minutes, blood was drawn into sodium citrate/benzamidine (final concentration, 5 mM/50 mM, respectively), centrifuged for 10 minutes at 4500 g at 4° C., and plasma was frozen. Plasma aPC levels were subsequently measured by capture ELISA using antimouse aPC antibody and chromogenic substrate Spectrozyme® PCa (American Diagnostica) (Li et al. (2005) J. Thromb. Haemost., 3:1351-1359).
In vivo aPC generation was assayed in plasma of mice generally as described above. […] After 10 minutes, blood was drawn into sodium citrate/benzamidine (final concentration 5 mM/50 mM, respectively), centrifuged for 10 minutes at 5,000 rpm at 4° C. and plasma frozen. […] Some animals were pre-injected with UFH or ODSH 10 minutes before injection of histones. Plasma aPC levels were measured by capture ELISA (Li et al. (2005) J. Thromb. Haemost., 3:1351-1359) using an anti-mouse aPC antibody and chromogenic substrate Spectrozyme® PCa (American Diagnostica; Stamford, Conn.).

mice = assay: Histone-induced lethality in mice; assay type: in vivo, mouse; details: heparinoid 50 mg/kg, histones 75 mg/kg, WT mice
[3] = aPTT in mouse plasma after injection of heparinoids with or without histones; assay type: in vivo; details: for severe prolongation of aPTT in presence of high (sub-lethal and lethal) concentrations of histones: heparinoid 50 mg/kg 10 minutes before histones, WT mice, FIG. 9B
Description: Blood was collected from cut tails 20 minutes after injection of heparinoids and aPTT measured in plasma. FIG. 9A: WT mice were injected with control buffer (at 0 mg/kg heparanoid concentrations) or UFH (dark squares) or ODSH (open triangles) at the concentrations indicated. FIG. 9B: WT mice were injected with control buffer (open circles) or 50 mg/kg of either UFH (black square) or ODSH (gray triangles) 10 minutes before injection of increasing concentrations of histones. N=5 mice per data point. Mean±1 SD are shown.

antithrombin = details: Fryer et al. (1997); cited from earlier work
[4] = WT mice, heparinoid 50 mg/kg, FIG. 8

What does the source list for platelet factor 4 [PF4]?
potency on aPC activity compared with histones ([1]; FIGS. 2C and 2D): more potent than histones; increase of aPC generation by PF4 in absence of histones ([1]; PF4 3 μg/ml): > 3 fold; increase of aPC generation by PF4 in absence of histones ([1]; PF4 25 μg/ml): around 7 fold; PF4 concentration at peak of bell-shape curve of aPC generation ([2]; FIG. 1A): around 50 μg/ml; maximal increase of aPC generation ([2]; at peak of biphasic curve): ~6 times; PF4 concentration at peak of biphasic curve of aPC generation ([2]; in solution, human TM expressing HEK293, primary endothelial cells): around 25 μg/ml; effect of concurrently injected PF4 on plasma aPC (plasma aPC; PF4 knockout mice, PF4 5 mg/kg with IIa and histones, FIG. 4, 5 mg/kg): further increases the generation of aPC in plasma; also recorded: higher aPC levels

For 2-O, 3-O desulfated heparin [ODSH], which “effect of heparinoid on aPC generation with high doses of PF4 and histones” value [1] is on record?
The value was “enhanced aPC generation”.

What about the “effect of heparinoid on aPC generation at low levels of histones” value [1] of the same substance?
Its value is “inhibited aPC generation”.

What about the “effect of heparinoid on aPC generation at higher levels of histones” value [1] of the same substance?
The value was “restored high levels of aPC generation”.

What about the “effect of heparinoid on aPC generation after histones” value (plasma aPC; [4]) of the same substance?
Its value is “suppressed detectable aPC generation”.

What about the “aPC levels in mice pretreated with heparinoid” value (plasma aPC; heparinoid 50 mg/kg, histones 75 mg/kg, WT mice, FIG. 8) of the same substance?
The value was “aPC levels were raised”.

What about the “effect of heparinoid on histone lethality” value (mice) of the same substance?
Its value is “prevent these deaths”.

What about the “severe prolongation of aPTT in presence of high (sub-lethal and lethal) concentrations of histones” value [3] of the same substance?
The value was “reversed”.

And the “dose required to markedly prolong the aPTT” value ([3]; non-histone treated mice, FIG. 9A)?
Its value is “the same as needed to reverse histone lethality”.

And the “antithrombin activity, fold less” value (antithrombin)?
The value was about 60 fold.

For protamine sulfate [PRT], which “shape of aPC generation versus protamine sulfate concentration” value ([2]; FIG. 1C) is on record?
The value was “bell-shape curve”.

Which “effect of heparin in absence of the GLA-domain of Protein C” value ([1]; Gla-domainless Protein C, TM+CS, FIG. 3E) does the source give for heparin here?
The value was “did not have any effect”.

And the “effect of heparin on histones/PF4 mediated aPC generation” value ([1]; TM+CS, PF4 50 μg/ml, histones 75 μg/ml, FIGS. 3B and 3C)?
Its value is “first enhances aPC generation before a decrease in aPC generation”.

And the “effect of UFH on peak aPC generation from histone plus PF4” value ([1]; UFH 5 μg/ml, PF4 50 μg/ml, FIG. 6C)?
The value was “shifted to the right”.

And the “effect of heparinoid on aPC generation with high doses of PF4 and histones” value [1]?
The value was “enhanced aPC generation”.

And the “effect of heparinoid on aPC generation at low levels of histones” value [1]?
Its value is “inhibited aPC generation”.

What about the “effect of heparin on aPC generation at below peak concentration of histones” value ([1]; histones 3 μg/ml, TM+CS, FIG. 2F) of the same substance?
Its value is “only decreased aPC generation”.

And the “effect of heparinoid on aPC generation at higher levels of histones” value [1]?
The value was “restored high levels of aPC generation”.

What about the “heparin concentration of optimal effect on aPC generation” value ([1]; histones present in excess (75 μg/ml), TM+CS, FIGS. 2E and 2F) of the same substance?
Its value is 5 μg per ml.

And the “effect of heparin on aPC generation at low concentrations of PF4” value ([2]; PF4 12.5 μg/ml, FIG. 1B)?
Its value is “decreases aPC generation”.

And the “effect of heparin on aPC generation at an excess of PF4” value ([2]; PF4 400 μg/ml, FIG. 1B)?
The value was “shifts the curve back to the optimal PF4 concentration”.

And the “effect of heparin on aPC generation at lower than optimal protamine sulfate concentration” value ([2]; PRT 1 μg/ml, FIG. 1D)?
Its value is “only decreases aPC generation”.

And the “effect of heparin on aPC generation at higher concentrations of PRT” value ([2]; PRT 20 μg/ml, FIG. 1D)?
Its value is “a peak and then a decrease in aPC”.

What about the “effect of added heparin on histone curve for aPC generation” value ([2]; absence or presence of PF4) of the same substance?
The value was “shifted the curve for aPC generation to the right”.

What about the “effect of heparinoid on aPC generation after histones” value (plasma aPC; [4]) of the same substance?
The value was “suppressed detectable aPC generation”.

What about the “effect of heparinoid on histone lethality” value (mice) of the same substance?
Its value is “prevent these deaths”.

And the “effect on aPTT in mice not exposed to histones” value ([3]; concentrations 10 and 100-times lower than needed to reverse histone lethality, FIG. 9A)?
Its value is “marked prolongation of aPTT”.

What about the “severe prolongation of aPTT in presence of high (sub-lethal and lethal) concentrations of histones” value [3] of the same substance?
Its value is “not by the UFH”.
